From patent publication US11077126B2 (priority 2017, dated 2021)

How the values were obtained:
[1] = tested on: transplanted tumor of human glioma U251 cells; assay: Human glioma in nude mice model; settings: 30 mg/kg i.g. 30 d
Protocol: (§1) Then matrigel cell concentration was adjusted to 1×10^7/ml with matrigel, and then each nude mouse was inoculated subcutaneously with 0.2 ml of cells at its right armpit and recorded as the first day of inoculation. […] Each group was continuously administered intragastrically for 30 days with a dose of 20 ml/kg. The mice were sacrificed the next day after drug withdrawal and the indicators were tested. The long diameter and short diameter of tumor, and the body weight of each mouse were recorded every 3 days from drug administration to nude mouse sacrifice.
(§2) The body weight of the nude mice and the long diameter (a) and short diameter (b) of the transplanted tumor were measured every 3 days, and the tumor volume (v), relative tumor volume (RTV) and relative tumor proliferation rate (T/C) are calculated respectively according to the following formulas, wherein V=a×b^2/2; RTV=V/V0 (V0 is the tumor volume before administration, V is the tumor volume before sacrifice), and T/C (%)=treatment group RTV/model control group RTV×100%.
(§3) Each mouse was weighed and sacrificed. After the tumor was completely stripped off from the body of the mouse, the non-tumor tissues such as blood stains and fat were removed to weigh the tumor and calculate the tumor growth inhibition rate. The average tumor weight of each group of mice is used as an indicator of efficacy. Tumor growth inhibition rate (%)=(1−the average tumor weight of the treatment group/the average tumor weight of the model group)×100%.

[2] = tested on: transplanted tumor of human non-small cell lung cancer A549 cells; assay: Human non-small cell lung cancer in nude mice model; settings: 30 mg/kg i.g. 30 d
Protocol: A549 cells in a logarithmic growth phase were taken and subjected to a trypan blue exclusion experiment showing that the cell viability was more than 95%, then the cells were subjected to trypsinization, centrifugation, and supernatant removal. Then cell concentration was adjusted to 1×10^7/ml with matrigel, then each nude mouse was inoculated subcutaneously with 0.2 ml of cells at its right armpit and recorded as the first day of inoculation. When the tumor growed to be greater than or equal to 100 mm^3, the mice were randomly divided into 5 groups with 6 mice in each group. […] Each group was continuously administered intragastrically for 30 days with a dose of 20 ml/kg. The mice were sacrificed the next day after drug withdrawal and the indicators were tested. The long diameter and short diameter of the tumor, and the body weight of each mouse were recorded every 3 days from drug administration to nude mouse sacrifice.
as §2, §3

[3] = tested on: transplanted tumor of human gastric adenocarcinoma SGC7901 cells; assay: Human gastric adenocarcinoma in nude mice model; settings: 30 mg/kg
Protocol: as §1, with “Then cell concentration” for “Then matrigel cell concentration”, “diameter of the tumor, and” for “diameter of tumor, and”
as §2, §3

[4] = tested on: transplanted tumor of human renal cell adenocarcinoma 769-P cells; assay: Human renal cell adenocarcinoma in nude mice model; settings: 769-P nude mice; 30 mg/kg i.g. 30 d
Protocol: as §1, with “Then” for “Then matrigel”
as §2, §3

[5] = tested on: transplanted tumor of human breast cancer MCF-7 cells; assay: Human breast cancer (MCF-7) in nude mice model; settings: MCF-7 nude mice; 30 mg/kg i.g. 30 d
Protocol: as §1, with “Then cell concentration” for “Then matrigel cell concentration”, “diameter of the tumor, and” for “diameter of tumor, and”
as §2, §3

[6] = tested on: spleen lymphocytes (ConA, LPS stimulation); assay: Spleen lymphocyte proliferation activity of Lewis lung cancer tumor-bearing mice; format: in vivo, C57BL/6 mouse
Protocol: The serum-free RPMI 1640 medium was placed in a dish, and then the dish was placed on ice. The spleen was aseptically taken and gently ground with a sterile glass slide to prepare a single cell suspension. The single cell suspension was filtered with a double-layer sterile gauze, washed twice with serum-free RPMI 1640 medium, and centrifuged at 1,500 rpm for 5 min to remove the obtained supernatant. 2 mL of red blood cell lysate was added to the treated suspension, the mixture was allowed to stand for 2 min, and then 8 mL of RPMI 1640 medium was added, centrifuging was performed at 1,500 rpm for 5 min to remove the obtained supernatant, and then washing was performed twice with the RPMI 1640 medium. Trypan blue staining was performed to count the number of live cells, and the cell viability was more than 95%. A single cell suspension was prepared by using a RPMI 1640 medium containing 10% fetal bovine serum.
The spleen cell suspension was taken, and the cell density was adjusted to 1×10^7/mL. Each mouse was set with: A. a control well: 100 μL of RPMI 1640 medium was added; B. a concanavalin A (ConA) stimulation well: 100 μL (10 mg/L) of concanavalin A (ConA) solution was added; and C. a bacterial endotoxin (LPS) stimulating well: 100 μL (20 mg/L) of bacterial endotoxin (LPS) solution was added. The above cells were added to a 96-well plate, and then 100 μL of spleen cell suspension was added to each of the above wells. After the culture plate was transferred to a saturated humidity condition with a volume fraction of 5% CO2 at 37° C. for incubation for 72 h, 10 μL of MTT solution (5 g/L) was added to each well, and incubation was continued to be performed for 4 hours under the same conditions, then the culture was terminated. […] The Optical Density (OD) of each well was measured at 570 nm, and the lymphocyte proliferation rate was calculated. Lymphocyte proliferation rate (%)=[(T−C)/C]×100%, wherein T is the Optical Density of the stimulation well, and C is the Optical Density of the control well.

[7] = 26 mg/kg, positive drug group, n = 6

SMILES: O=P1(N(CCCl)CCCl)NCCCO1 (stereo not shown) [Cyclophosphamide]
- Body Weight (g)(d1) [1]: 22.24 ± 1.53 g
- Body Weight (g)(d30) [1]: 19.92 ± 1.68 g
- Inhibition Rate (%) [1]: 79.74%
- Relative Tumor Proliferation Rate(T/C) [1]: 56.84%
- Relative Tumor Volume (RTV) [1]: 5.75 ± 1.22
- Tumor Volume (mm3) (d1) [1]: 98.40 ± 25.25 mm3
- Tumor Volume (mm3) (d30) [1]: 566.33 ± 39.32 mm3
- Tumor Weight [1]: 0.42 ± 0.10 g
- Body Weight (g)(d1) [2]: 20.89 ± 0.91 g
- Body Weight (g)(d30) [2]: 18.97 ± 0.82 g
- Inhibition Rate (%) [2]: 81.25%
- Relative Tumor Proliferation Rate(T/C) [2]: 23.28%
- Relative Tumor Volume (RTV) [2]: 3.97 ± 0.68
- Tumor Volume (mm3) (d1) [2]: 127.26 ± 15.21 mm3
- Tumor Volume (mm3) (d30) [2]: 504.75 ± 143.63 mm3
- Tumor Weight [2]: 0.21 ± 0.11 g
- Relative Tumor Proliferation Rate(T/C) [3]: 48.83%
- Relative Tumor Volume (RTV) [3]: 7.86 ± 3.23
- Tumor Weight [3]: 0.71 ± 0.08 g
- Inhibition Rate (%) ([3]; by tumor weight): 70.97%
- Body Weight (g)(d1) ([3]; d1): 21.80 ± 1.96 g
- Tumor Volume (mm3) (d1) ([3]; d1): 102.45 ± 9.52 mm3
- Body Weight (g)(d30) ([3]; d30): 20.25 ± 1.57 g
- Tumor Volume (mm3) (d30) ([3]; d30): 799.74 ± 82.25 mm3
- Body Weight (g)(d1) [4]: 22.48 ± 0.91 g
- Body Weight (g)(d30) [4]: 21.28 ± 0.39 g
- Inhibition Rate (%) [4]: 76.09%
- Relative Tumor Proliferation Rate(T/C) [4]: 19.68%
- Relative Tumor Volume (RTV) [4]: 4.19 ± 1.29
- Tumor Volume (mm3) (d1) [4]: 178.48 ± 28.78 mm3
- Tumor Volume (mm3) (d30) [4]: 747.83 ± 138.57 mm3
- Tumor Weight [4]: 0.61 ± 0.15 g
- Body Weight (g)(d1) [5]: 21.93 ± 0.89 g
- Body Weight (g)(d30) [5]: 19.79 ± 1.47 g
- Inhibition Rate (%) [5]: 62.3%
- Relative Tumor Proliferation Rate(T/C) [5]: 30.58%
- Relative Tumor Volume (RTV) [5]: 5.00 ± 1.27
- Tumor Volume (mm3) (d1) [5]: 127.68 ± 14.89 mm3
- Tumor Volume (mm3) (d30) [5]: 638.62 ± 123.11 mm3
- Tumor Weight [5]: 0.72 ± 0.21 g
- B Lymphocyte Proliferation Activity (%) [6, 7]: 11.63 ± 4.68 %
- T Lymphocyte Proliferation Activity (%) [6, 7]: 13.24 ± 3.72 %
- lymphocyte activity (proliferation) ([6]; Lewis lung cancer tumor-bearing mice, cyclophosphamide, P<0.05): significantly inhibited
